Results published in patent US20200281834A1, “COMPOSITION FOR PROMOTING EXPRESSION OF AQUAPORIN 3, AND USE THEREOF” (SUNTORY HOLDINGS LIMITED, priority 2017, published 2020).
Several values for one entry are separate records, joined by “and”; a condition that tells them apart may be missing. Equal values may be shown once.

Tested on: aquaporin 3
Assay: Expression level of aquaporin 3 in skin epithelial cells (real-time PCR, corrected for GAPDH)
Format: cell-based, Human
Details: NHEK, 24 hours
[1] = 30 μM, control (culture solution) = 1.0
[2] = 50 μM, control (culture solution) = 1.0

Experimental: As a control, 50% ethanol was prepared.
As a positive control, retinoic acid was prepared.
Human epidermal keratinocytes (NHEK (AD)) were precultured under conditions of 37° C. and 5% CO2 in a serum-free liquid medium for growing human epidermal keratinocyte (HuMedia-KG2 manufactured by Kurabo Industries, Ltd.) in a 21 cm^2 dish, and cultured until the cells became sub-confluent.
Next, each test sample was added to the culture solution. Each test sample was added to the culture solution in such a manner that the concentration of the wine in the culture solution was equivalent to 1/400 of the concentration of each original composition (wine).
After each test sample was added, the cells were cultured under conditions of 37° C. and 5% CO2 for 24 hours.
Instead of each test sample, 0.125 mL of 50% ethanol as a control was added to 5 mL of the culture solution.
Instead of each test sample, retinoic acid as a positive control was added to the culture solution in such a manner that the concentration of the retinoic acid in the culture solution was 2 μM.
After the compositions as the controls were added, the cells were cultured under conditions of 37° C. and 5% CO2 for 24 hours.
After the culture of skin epithelial cells in “(2) Culture of Skin Epithelial Cells”, RNA was extracted from the cultured cells with ISOGEN (manufactured by Nippon Gene Co., Ltd.).
From 1 μg of the resulting RNA, cDNA was synthesized with Superscript VILO Master Mix (manufactured by Invitrogen).
Thereafter, with primers (primers having nucleotide sequences of SEQ ID NOS: 1 and 2) shown in Table 4, real-time PCR was performed to detect expression of aquaporin 3 (Genbank Accession No. NM_004925).
For PCR, KOD SYBR qPCR Mix (manufactured by Toyobo Co., Ltd.) was used, and the reaction conditions were set such that thermal denaturation was carried out at 98° C. for 10 seconds, annealing was carried out at 60° C. for 10 seconds, and elongation reaction was carried out at 68° C. for 30 seconds.
The fluorescence intensity in the process of amplification was monitored with a quantitative PCR apparatus StepOnePlus (manufactured by Applied Biosystems) to determine the number of cycles taken until the fluorescence intensity became constant. From the number of cycles for aquaporin 3, the expression level was calculated through a standard method.
In parallel to detection of the expression level of aquaporin 3 by real-time PCR, the expression level of glyceraldehyde-3-phosphate dehydrogenase (GAPDH) (Genbank Accession No. NM_002046) which is a housekeeping gene was measured with primers (primers having nucleotide sequences of SEQ ID NOS: 3 and 4) shown in Table 4.
The expression level of aquaporin 3 in the cultured cells was corrected for the expression level of GAPDH, and the expression level relative against the expression level of aquaporin 3 in the control was calculated, where the expression level of aquaporin 3 in the control was defined as 1.0.
The expression level of aquaporin 3 in skin epithelial cells was measured in the same manner as in “Method for Evaluating Expression Level of Aquaporin 3” except that instead of each test sample, 0.0125 mL of each fraction was added to 5 mL of a culture solution.
Each compound was dissolved in a human epidermal keratinocyte growing serum-free liquid medium (HuMedia-KG2 manufactured by Kurabo Industries, Ltd.) to prepare a test sample.
The culture solution was used as a control.

Row | Compound | Relative gene expression level (average) of aquaporin 3 [1] | Relative gene expression level (average) of aquaporin 3 [2] | Relative gene expression level (average) of aquaporin 3 (2 μM, control (50% ethanol) = 1.0) | Relative gene expression level (average) of aquaporin 3 (2 μM, control (culture solution) = 1.0, listed as RA)
1 | Oc1cc(O)c2c(c1)O[C@H](c1ccc(O)c(O)c1)[C@H](O)[C@H]2c1c(O)cc(O)c2c1O[C@H](c1ccc(O)c(O)c1)[C@H](O)C2 [EC-EC, procyanidin B2] | 0.98 | 0.99 |  | 
2 | Oc1cc(O)c2c(c1)O[C@H](c1ccc(O)c(O)c1)[C@@H](O)[C@@H]2c1c(O)cc(O)c2c1O[C@H](c1ccc(O)c(O)c1)[C@@H](O)C2 [C-C, Procyanidin B3] | 1.19 | 1.27 |  | 
3 | catechin | 1.19 | 1.14 |  | 
4 | (+)-catechin-(+)-catechin-(−)-epicatechin-3-O-gallate [C-C-ECG] | 2.01 | 2.50 |  | 
5 | O=C(O[C@@H]1Cc2c(O)cc(O)c([C@@H]3c4c(O)cc(O)cc4O[C@H](c4ccc(O)c(O)c4)[C@H]3O)c2O[C@@H]1c1ccc(O)c(O)c1)c1cc(O)c(O)c(O)c1 [C-ECG, (+)-catechin-(−)epicatechin-3-O-gallate] | 2.19 | 2.59 |  | 
6 | Oc1cc(O)c2c(c1)O[C@H](c1ccc(O)c(O)c1)[C@H](O)[C@H]2c1c(O)cc(O)c2c1O[C@H](c1ccc(O)c(O)c1)[C@@H](O)C2 [EC-C, Procyanidin B1] | 1.14 | 1.20 |  | 
7 | Oc1cc(O)c2c(c1)O[C@H](c1ccc(O)c(O)c1)[C@H](O)C2 [EC, epicatechin] | 1.15 | 1.21 |  | 
8 | Oc1cc(O)c2c(c1)O[C@H](c1ccc(O)c(O)c1)[C@H](O)[C@H]2c1c(O)cc(O)c2c1O[C@H](c1ccc(O)c(O)c1)[C@H](O)[C@H]2c1c(O)cc(O)c2c1O[C@H](c1ccc(O)c(O)c1)[C@H](O)C2 [PC1, procyanidin C1] | 1.41 | 1.34 |  | 
9 | Oc1cc(O)c2c(c1)O[C@H](c1ccc(O)c(O)c1)[C@@H](O)[C@@H]2c1c(O)cc(O)c2c1O[C@H](c1ccc(O)c(O)c1)[C@H](O)C2 [C-EC, procyanidin B4] | 1.24 | 1.12 |  | 
10 | CC1=C(/C=C/C(C)=C/C=C/C(C)=C/C(=O)O)C(C)(C)CCC1 [Retinoic acid, retinoic acid] |  |  | 1.61 | 1.32 and 1.36 and 1.21
11 | O=C(O[C@@H]1Cc2c(O)cc(O)cc2O[C@@H]1c1cc(O)c(O)c(O)c1)c1cc(O)c(O)c(O)c1 [EGCG, epigallocatechin gallate] | 1.36 | 1.47 |  | 
12 | O=C(O[C@@H]1Cc2c(O)cc(O)cc2O[C@@H]1c1ccc(O)c(O)c1)c1cc(O)c(O)c(O)c1 [ECG, epicatechin gallate] | 1.63 | 1.25 |  | 
